Measurements as given in publication PMC7559897, “Designed Antimicrobial Peptides Against Trauma-Related Cutaneous Invasive Fungal Wound Infections” (Journal of Fungi, 2020).
In brackets after ≈: the same amount, converted by molar mass. Bridge positions count the residues as written; N and C are the ends. Peptide text beside a SMILES is read from it.

Key:
[1] = test system: Absidia corymbifera NRRL 6251; assay type: cell-based; conditions: potato dextrose broth, 24 h, 37 °C, OD600 <0.1 in at least 3 of 4 wells, dose range 2 to 128 µg/mL; shaded values previously reported ref 17
Outline: (§1)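 Overnight TSB cultures (37 °C) diluted to approx. 10^6 CFU/mL, 2X CAMHB; fungal isolate in potato dextrose broth. dAMP 2-fold series 2–128 μg/mL, n=4. 24 h, 37 °C, A600; MIC: ≥3/4 wells OD <0.1.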

[2] = test system: Aspergillus flavus MYA-1004; assay type: cell-based; conditions: potato dextrose broth, 24 h, 37 °C, OD600 <0.1 in at least 3 of 4 wells, dose range 2 to 128 µg/mL; shaded values previously reported ref 17
Outline: as §1

[3] = test system: Aspergillus flavus MYA-3651; assay type: cell-based; conditions: potato dextrose broth, 24 h, 37 °C, OD600 <0.1 in at least 3 of 4 wells, dose range 2 to 128 µg/mL; shaded values previously reported ref 17
Outline: as §1

[4] = test system: Aspergillus fumigatus 9648; assay type: cell-based; conditions: potato dextrose broth, 24 h, 37 °C, OD600 <0.1 in at least 3 of 4 wells, dose range 2 to 128 µg/mL; shaded values previously reported ref 17
Outline: as §1

[5] = test system: Aspergillus fumigatus 9651; assay type: cell-based; conditions: potato dextrose broth, 24 h, 37 °C, OD600 <0.1 in at least 3 of 4 wells, dose range 2 to 128 µg/mL; shaded values previously reported ref 17
Outline: as §1

Candida albicans Y-326 = assay type: cell-based; conditions: potato dextrose broth, 24 h, 37 °C, OD600 <0.1 in at least 3 of 4 wells, dose range 2 to 128 µg/mL; shaded values previously reported ref 17
Outline: as §1

Candida albicans Y-6359 = assay type: cell-based; conditions: potato dextrose broth, 24 h, 37 °C, OD600 <0.1 in at least 3 of 4 wells, dose range 2 to 128 µg/mL; shaded values previously reported ref 17
Outline: as §1

Candida krusei Y-27803 = assay type: cell-based; conditions: potato dextrose broth, 24 h, 37 °C, OD600 <0.1 in at least 3 of 4 wells, dose range 2 to 128 µg/mL; shaded values previously reported ref 17
Outline: as §1

Candida krusei Y-27825 = assay type: cell-based; conditions: potato dextrose broth, 24 h, 37 °C, OD600 <0.1 in at least 3 of 4 wells, dose range 2 to 128 µg/mL; shaded values previously reported ref 17
Outline: as §1

[6] = test system: Candida parapsilosis Y-1761; assay type: cell-based; conditions: potato dextrose broth, 24 h, 37 °C, OD600 <0.1 in at least 3 of 4 wells, dose range 2 to 128 µg/mL; shaded values previously reported ref 17
Outline: as §1

[7] = test system: Candida parapsilosis Y-1763; assay type: cell-based; conditions: potato dextrose broth, 24 h, 37 °C, OD600 <0.1 in at least 3 of 4 wells, dose range 2 to 128 µg/mL; shaded values previously reported ref 17
Outline: as §1

E. cloacae 6053 = assay type: cell-based; conditions: cation adjusted Mueller-Hinton broth, ~10^6 CFU/mL, 24 h, 37 °C, OD600 <0.1 in at least 3 of 4 wells, 2-128 μg/mL; shaded values previously reported ref 18
Outline: as §1

E. cloacae 6054 = assay type: cell-based; conditions: cation adjusted Mueller-Hinton broth, ~10^6 CFU/mL, 24 h, 37 °C, OD600 <0.1 in at least 3 of 4 wells, 2-128 μg/mL; shaded values previously reported ref 18
Outline: as §1

[8] = test system: Fusarium solani NRRL 28548; assay type: cell-based; conditions: potato dextrose broth, 24 h, 37 °C, OD600 <0.1 in at least 3 of 4 wells, dose range 2 to 128 µg/mL; shaded values previously reported ref 17
Outline: as §1

[9] = test system: Mucor circinelloides NRRL 3631; assay type: cell-based; conditions: potato dextrose broth, 24 h, 37 °C, OD600 <0.1 in at least 3 of 4 wells, dose range 2 to 128 µg/mL; shaded values previously reported ref 17
Outline: as §1

S. epidermis ATCC 51625 = assay type: cell-based; conditions: cation adjusted Mueller-Hinton broth, ~10^6 CFU/mL, 24 h, 37 °C, OD600 <0.1 in at least 3 of 4 wells, 2-128 μg/mL; shaded values previously reported ref 18
Outline: as §1

P. aeruginosa 6186 = assay type: cell-based, Pseudomonas aeruginosa; conditions: cation adjusted Mueller-Hinton broth, ~10^6 CFU/mL, 24 h, 37 °C, OD600 <0.1 in at least 3 of 4 wells, 2-128 μg/mL; shaded values previously reported ref 18
Outline: as §1

P. aeruginosa ATCC 19660 = assay type: cell-based, Pseudomonas aeruginosa; conditions: cation adjusted Mueller-Hinton broth, ~10^6 CFU/mL, 24 h, 37 °C, OD600 <0.1 in at least 3 of 4 wells, 2-128 μg/mL; shaded values previously reported ref 18
Outline: as §1

P. aeruginosa ATCC 27853 = assay type: cell-based, Pseudomonas aeruginosa; conditions: cation adjusted Mueller-Hinton broth, ~10^6 CFU/mL, 24 h, 37 °C, OD600 <0.1 in at least 3 of 4 wells, 2-128 μg/mL; shaded values previously reported ref 18
Outline: as §1

With CC[C@H](C)[C@@H]1NC(=O)CNC(=O)[C@H](CCCCN)NC(=O)[C@H](Cc2ccc(O)cc2)NC(=O)[C@@H]2CSSC[C@H](NC1=O)C(=O)N[C@@H](Cc1ccccc1)C(=O)N[C@@H](CCCCN)C(=O)N[C@@H](CCCCN)C(=O)N[C@H](C(=O)N[C@@H](CCCCN)C(N)=O)CSSC[C@H](NC(=O)[C@H](Cc1ccccc1)NC(=O)[C@@H](N)CCCNC(=N)N)C(=O)N[C@@H](Cc1c[nH]c3ccccc13)C(=O)N[C@@H](CCCCN)C(=O)N[C@@H](C(C)C)C(=O)N2 [RP557] (H-RFCWKVCYKGICFKKCK-NH2; disulfide 3-16, 7-12) the “MIC against Absidia corymbifera NRRL 6251” value [1] was 2 µg/mL (≈ 0.936 µM), the “MIC against Aspergillus flavus MYA-1004” value [2] was 64 µg/mL (≈ 30 µM) and the “MIC against Aspergillus flavus MYA-3651” value [3] was 64 µg/mL (≈ 30 µM). For the same compound, the “MIC against Aspergillus fumigatus 9648” value [4] was 64 µg/mL (≈ 30 µM), the “MIC against Aspergillus fumigatus 9651” value [5] was 64 µg/mL (≈ 30 µM) and the “MIC against Candida albicans Y-326” value (Candida albicans Y-326) was 16 µg/mL (≈ 7.49 µM). For the same compound, the “MIC against Candida albicans Y-6359” value (Candida albicans Y-6359) was 4 µg/mL (≈ 1.87 µM), the “MIC against Candida krusei Y-27803” value (Candida krusei Y-27803) was 16 µg/mL (≈ 7.49 µM) and the “MIC against Candida krusei Y-27825” value (Candida krusei Y-27825) was 16 µg/mL (≈ 7.49 µM). For the same compound, the “MIC against Candida parapsilosis Y-1761” value [6] was 16 µg/mL (≈ 7.49 µM), the “MIC against Candida parapsilosis Y-1763” value [7] was 2 µg/mL (≈ 0.936 µM) and the “MIC against E. cloacae 6053” value (E. cloacae 6053) was 8 µg/mL (≈ 3.75 µM). The “MIC against E. cloacae 6054” value (E. cloacae 6054) was 8 µg/mL (≈ 3.75 µM), the “MIC against Fusarium solani NRRL 28548” value [8] was 2 µg/mL (≈ 0.936 µM) and the “MIC against Mucor circinelloides NRRL 3631” value [9] was 64 µg/mL (≈ 30 µM). For the same compound, the “MIC against S. epidermis ATCC 51625” value (S. epidermis ATCC 51625) was 8 µg/mL (≈ 3.75 µM), the “MIC against P. aeruginosa 6186” value (P. aeruginosa 6186) was 4 µg/mL (≈ 1.87 µM) and the “MIC against P. aeruginosa ATCC 19660” value (P. aeruginosa ATCC 19660) was 4 µg/mL (≈ 1.87 µM). For the same compound, the “MIC against P. aeruginosa ATCC 27853” value (P. aeruginosa ATCC 27853) was 4 µg/mL (≈ 1.87 µM).
